This is an account of results in US11072626B2, “Small molecule inhibitors of Galectin-3” (BRISTOL-MYERS SQUIBB COMPANY, priority 2017, dated 2021).

Sequence of His-tagged recombinant human Gal-3 (hGal-3) (P17931 whole entry): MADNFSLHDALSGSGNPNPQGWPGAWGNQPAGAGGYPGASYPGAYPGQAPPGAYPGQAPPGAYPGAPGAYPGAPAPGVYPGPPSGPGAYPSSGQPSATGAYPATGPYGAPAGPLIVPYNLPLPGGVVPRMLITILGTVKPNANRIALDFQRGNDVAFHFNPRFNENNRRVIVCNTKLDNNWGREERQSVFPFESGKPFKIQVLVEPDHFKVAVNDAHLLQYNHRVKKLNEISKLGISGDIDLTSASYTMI

The target in the first assay is His-tagged recombinant human Gal-3 (hGal-3) (Homo sapiens (Human), UniProt P17931). The assay is described as follows: Gal-3 HTRF assay (hGal-3 / B-ASF). Format: binding. To be noted: 15 nM hGal-3, 15 nM B-ASF, table after Example 4, read-out: hGal3 IC50. How it is done:
ASSAY BUFFER Composition: 25 mM HEPES, 100 mM NaCl, 0.005% Tween 20, 0.05% BSA prepared in sterile water (all reagents from Sigma)
Positive Control: 100% DMSO (1 μl)+His-tagged hGal-3 (20 μL)+B-ASF (20 μl)+Anti-His Terbium Antibody (5 μl)+Strep d2 Antibody (5 μl).
Negative Control: 100% DMSO (1 μl)+His-tagged hGal-3 (20μL)+Anti His Terbium Antibody (5 μl)+Strep d2 Aantibody (5 μl).
PROTOCOL: The Gal-3 assays were performed in 384 white Opti plates in three replicates at room temperature with gentle shaking at 250-300 rpm From the original stocks, […] working stock concentrations of His-tagged recombinant human Gal-3 (hGal-3) and that of B-ASF were prepared. From the working stock, 20 μl of hGal-3 (15 nM) and 20 μl B-ASF (15 nM) were added to the plates. In Negative Control, only hGal-3 was added. A concentration range of 50× working stocks were prepared for the compounds in 100% DMSO. Aliquots of 1 uL of the compounds were added to the wells and pre-incubated with 20 μl hGal-3 per well for 30 minutes Then 20 μl B-ASF were added and incubated for another 1 hour. To detect the signal, 5 μ(final conc. of 1.0 nM) terbium labelled Anti-His antibody was added and incubated for 30 min followed by adding 5 μ(final conc. of 20 nM) Streptavidin d2 and incubation for another 1 hour. The assay signal was detected using HTRF screen protocol (Excitation wavelength=340 nm, emission wavelength=615 nm/665 nm) on Envision 2104 Multilabel Reader. Data analysed using Toolset and Curve Master. Results are reported in the experimental section (IC50 in μM).
A general note: Time-resolved FRET reads energy transfer from a long-lived donor to a nearby acceptor.
With `OC[C@H]1O[C@H](Sc2ccc(Cl)c(Cl)c2)[C@H](OCCN2CCOCC2)[C@@H](n2cc(-c3cc(F)c(F)c(F)c3)nn2)[C@H]1O` [compound 5, (2R,3R,4S,5R,6R)-6-((3,4-dichlorophenyl)thio)-2-(hydroxymethyl)-5-(2-morpholinoethoxy)-4-(4-(3,4,5-trifluorophenyl)-1H-1,2,3-triazol-1-yl)tetrahydro-2H-pyran-3-ol], the IC50 (in general, the point on the concentration scale where inhibition reaches its midpoint) is 195 nM.

The assay is the same for the next values; noted with them: 15 nM hGal-3, 15 nM B-ASF, table after Example 20, read-out: hGal3 IC50.
For `CC(=O)NC1CN(C(=O)CO[C@@H]2[C@@H](n3cc(-c4cc(F)c(F)c(F)c4)nn3)[C@@H](O)[C@@H](CO)O[C@@H]2Sc2ccc(Cl)c(Cl)c2)C1` [Example 30], the IC50 is 800 nM.

As to `O=C(CO[C@@H]1[C@@H](n2cc(-c3cc(F)c(F)c(F)c3)nn2)[C@@H](O)[C@@H](CO)O[C@@H]1Sc1ccc(Cl)c(Cl)c1)N1CCCCC1` [Example 21], the IC50 was 225 nM.

Consider `O=C(CO[C@@H]1[C@@H](n2cc(-c3cc(F)c(F)c(F)c3)nn2)[C@@H](O)[C@@H](CO)O[C@@H]1Sc1ccc(Cl)c(Cl)c1)N1CC[C@H](O)C1` [Example 28], for which the IC50 amounted to 48 nM.

Regarding `O=C(CO[C@@H]1[C@@H](n2cc(-c3cc(F)c(F)c(F)c3)nn2)[C@@H](O)[C@@H](CO)O[C@@H]1Sc1ccc(Cl)c(Cl)c1)N1CC(O)C1` [Example 31], the 50% inhibitory concentration (IC50) amounted to 90 nM.

On to `O=C(CO[C@@H]1[C@@H](n2cc(-c3cc(F)c(F)c(F)c3)nn2)[C@@H](O)[C@@H](CO)O[C@@H]1Sc1ccc(Cl)c(Cl)c1)N1CCOCC1` [Example 25, 2-(((2R,3R,4S,5R,6R)-2-((3,4-dichlorophenyl)thio)-5-hydroxy-6-(hydroxymethyl)-4-(4-(3,4,5-trifluorophenyl)-1H-1,2,3-triazol-1-yl)tetrahydro-2H-pyran-3-yl)oxy)-1-morpholinoethan-1-one], for which the IC50 is 76 nM.

Turning to `O=C(CO[C@@H]1[C@@H](n2cc(-c3cc(F)c(F)c(F)c3)nn2)[C@@H](O)[C@@H](CO)O[C@@H]1Sc1ccc(Cl)c(Cl)c1)N1CCC[C@@H](O)C1` [Example 23], the IC50 stood at 60 nM.

Staying with this assay, now noted: 15 nM hGal-3, 15 nM B-ASF, table after Example 46, read-out: hGal3 IC50.
Take `O=C(O)CO[C@@H]1[C@@H](n2cc(-c3ccc(F)cn3)nn2)[C@@H](O)[C@@H](CO)O[C@@H]1Sc1ccc(Cl)c(Cl)c1` [Example 58]: the IC50 came out at 840 nM.

As for `COc1ccc(-c2cn([C@H]3[C@@H](O)[C@@H](CO)O[C@H](Sc4ccc(Cl)c(Cl)c4)[C@@H]3OCC(=O)O)nn2)cc1` [Example 47], the 50% inhibitory concentration (IC50) turned out to be 1530 nM.

For `Cc1cccc(-c2cn([C@H]3[C@@H](O)[C@@H](CO)O[C@H](Sc4ccc(Cl)c(Cl)c4)[C@@H]3OCC(=O)O)nn2)c1` [Example 49], the IC50 was determined as 1340 nM.

Still in this assay, the particulars now being: 15 nM hGal-3, 15 nM B-ASF, three replicates, room temperature, read-out: hGal3 IC50.
Consider `CC(O[C@@H]1[C@@H](n2cc(-c3cc(F)c(F)c(F)c3)nn2)[C@@H](O)[C@@H](CO)O[C@@H]1Sc1ccc(Cl)c(Cl)c1)C(=O)O` (single isomer, unassigned) [Example 38 (isomer-1)], for which the IC50 was determined as 150 nM.

As for `CCO[C@@H]1[C@@H](n2cc(-c3cc(F)c(F)c(F)c3)nn2)[C@@H](O)[C@@H](CO)O[C@@H]1[S+]([O-])c1ccc(Cl)c(Cl)c1` (single isomer, unassigned) [Example 9 (isomer-2)], the IC50 amounted to 340 nM.

Consider `O=C(O)CO[C@@H]1[C@@H](n2cc(-c3cc(F)c(F)c(F)c3)nn2)[C@@H](O)[C@@H](CO)O[C@@H]1[S+]([O-])c1ccc(Cl)c(Cl)c1` (single isomer, unassigned) [18 (isomer-1)], for which the IC50 came to 17 nM.

Turning to `O=C(O)CO[C@@H]1[C@@H](n2cc(-c3ccccc3)nn2)[C@@H](O)[C@@H](CO)O[C@@H]1Sc1ccc(Cl)c(Cl)c1` [Example 46, 2-(((2R,3R,4S,5R,6R)-2-((3,4-dichlorophenyl)thio)-5-hydroxy-6-(hydroxymethyl)-4-(4-phenyl-1H-1,2,3-triazol-1-yl)tetrahydro-2H-pyran-3-yl)oxy)acetic acid], the IC50 was 1360 nM.

Take `O=C(O)/C=C/O[C@@H]1[C@@H](n2cc(C3CC3)nn2)[C@@H](O)[C@@H](CO)O[C@@H]1Sc1ccc(Cl)c(Cl)c1` [Example 41, (E)-3-(((2R,3R,4S,5R,6R)-4-(4-cyclopropyl-1H-1,2,3-triazol-1-yl)-2-((3,4-dichlorophenyl)thio)-5-hydroxy-6-(hydroxymethyl)tetrahydro-2H-pyran-3-yl)oxy)acrylic acid]: the IC50 is 2740 nM.

Consider `[O-][N+]1(CCO[C@@H]2[C@@H](n3cc(-c4cc(F)c(F)c(F)c4)nn3)[C@@H](O)[C@@H](CO)O[C@@H]2Sc2ccc(Cl)c(Cl)c2)CCOCC1` [Example 13, 4-(2-(((2R,3R,4S,5R,6R)-2-((3,4-dichlorophenyl)thio)-5-hydroxy-6-(hydroxymethyl)-4-(4-(3,4,5-trifluorophenyl)-1H-1,2,3-triazol-1-yl)tetrahydro-2H-pyran-3-yl)oxy)ethyl)morpholine 4-oxide], for which the IC50 was found to be 50 nM.

With `CO[C@@H]1[C@@H](n2cc(-c3cc(F)c(F)c(F)c3)nn2)[C@@H](O)[C@@H](CO)O[C@@H]1[S+]([O-])c1ccc(Cl)c(Cl)c1` (single isomer, unassigned) [Example 2 (isomer-1)], the IC50 was found to be 29 nM.

Regarding `COCCO[C@@H]1[C@@H](n2cc(-c3cc(F)c(F)c(F)c3)nn2)[C@@H](O)[C@@H](CO)O[C@@H]1[S@+]([O-])c1ccc(Cl)c(Cl)c1` [Example 11, (2R,3R,4S,5R,6R)-6-((R)-(3,4-dichlorophenyl)sulfinyl)-2-(hydroxymethyl)-5-(2-methoxyethoxy)-4-(4-(3,4,5-trifluorophenyl)-1H-1,2,3-triazol-1-yl)tetrahydro-2H-pyran-3-ol], the IC50 turned out to be 56 nM.

Consider `CO[C@@H]1[C@@H](n2cc(-c3cc(F)c(F)c(F)c3)nn2)[C@@H](O)[C@@H](CO)O[C@@H]1[S+]([O-])c1ccc(Cl)c(Cl)c1` (single isomer, unassigned) [Example 2 (isomer-2)], for which the 50% inhibitory concentration (IC50) was found to be 155 nM.

As to `CO[C@@H]1[C@@H](n2nncc2C(=O)O)[C@@H](O)[C@@H](CO)O[C@@H]1Sc1ccc(Cl)c(Cl)c1` [Example 45, 1-((2R,3R,4S,5R,6R)-2-((3,4-dichlorophenyl)thio)-5-hydroxy-6-(hydroxymethyl)-3-methoxytetrahydro-2H-pyran-4-yl)-1H-1,2,3-triazole-5-carboxylic acid], the IC50 came to 1520 nM.

On to `CCO[C@@H]1[C@@H](n2cc(-c3cc(F)c(F)c(F)c3)nn2)[C@@H](O)[C@@H](CO)O[C@@H]1[S+]([O-])c1ccc(Cl)c(Cl)c1` (single isomer, unassigned) [Example 9 (isomer-1)], for which the IC50 stood at 100 nM.

`CCOC(=O)CO[C@@H]1[C@@H](n2cc(-c3cc(F)c(F)c(F)c3)nn2)[C@@H](O)[C@@H](CO)O[C@@H]1Sc1ccc(Cl)c(Cl)c1` [Example 14, ethyl 2-(((2R,3R,4S,5R,6R)-2-((3,4-dichlorophenyl)thio)-5-hydroxy-6-(hydroxymethyl)-4-(4-(3,4,5-trifluorophenyl)-1H-1,2,3-triazol-1-yl)tetrahydro-2H-pyran-3-yl)oxy)acetate]: the IC50 was found to be 380 nM.

Take `COCCO[C@@H]1[C@@H](n2cc(-c3cc(F)c(F)c(F)c3)nn2)[C@@H](O)[C@@H](CO)O[C@@H]1S(=O)(=O)c1ccc(Cl)c(Cl)c1` [Example 12, (2R,3R,4S,5R,6R)-6-((3,4-dichlorophenyl)sulfonyl)-2-(hydroxymethyl)-5-(2-methoxyethoxy)-4-(4-(3,4,5-trifluorophenyl)-1H-1,2,3-triazol-1-yl)tetrahydro-2H-pyran-3-ol]: the half-maximal inhibitory concentration (IC50) worked out at 130 nM.

`CC(O[C@@H]1[C@@H](n2cc(-c3cc(F)c(F)c(F)c3)nn2)[C@@H](O)[C@@H](CO)O[C@@H]1S(=O)(=O)c1ccc(Cl)c(Cl)c1)C(=O)O` (single isomer, unassigned) [Example 39 (isomer-2)]: the IC50 was determined as 20 nM.

In the case of `CC(O[C@@H]1[C@@H](n2cc(-c3cc(F)c(F)c(F)c3)nn2)[C@@H](O)[C@@H](CO)O[C@@H]1S(=O)(=O)c1ccc(Cl)c(Cl)c1)C(=O)O` (single isomer, unassigned) [Example 39 (isomer-1)], the IC50 was found to be 360 nM.

As for `O=C(CO[C@@H]1[C@@H](n2cc(-c3cc(F)c(F)c(F)c3)nn2)[C@@H](O)[C@@H](CO)O[C@@H]1[S@@+]([O-])c1ccc(Cl)c(Cl)c1)N1CCOCC1` [Example 37, 2-(((2R,3R,4S,5R,6R)-2-((S)-(3,4-dichlorophenyl)sulfinyl)-5-hydroxy-6-(hydroxymethyl)-4-(4-(3,4,5-trifluorophenyl)-1H-1,2,3-triazol-1-yl)tetrahydro-2H-pyran-3-yl)oxy)-1-morpholinoethan-1-one], the IC50 is 80 nM.
